Laboratory results: patent publication US20220306617A1, “SUBSTITUTED 1,3-PHENYL HETEROARYL DERIVATIVES AND THEIR USE IN THE TREATMENT OF DISEASE” (NOVARTIS AG, priority 2019, published 2022)
Where a name gives a salt, the structure may show the parent alone.

Biological target: T1, abc isoform of human TMEM16A channel expressed in CHO cells (Homo sapiens, UniProt Q5XXA6, DEL476-501)
T1 construct: expressed in transfected cells; host or cells: CHO cells, doxycycline-inducible expression under Blasticidin/Zeocin selection
T1 sequence (Q5XXA6 with tags, fused parts or gaps isoform Q5XXA6-5 DEL539-564): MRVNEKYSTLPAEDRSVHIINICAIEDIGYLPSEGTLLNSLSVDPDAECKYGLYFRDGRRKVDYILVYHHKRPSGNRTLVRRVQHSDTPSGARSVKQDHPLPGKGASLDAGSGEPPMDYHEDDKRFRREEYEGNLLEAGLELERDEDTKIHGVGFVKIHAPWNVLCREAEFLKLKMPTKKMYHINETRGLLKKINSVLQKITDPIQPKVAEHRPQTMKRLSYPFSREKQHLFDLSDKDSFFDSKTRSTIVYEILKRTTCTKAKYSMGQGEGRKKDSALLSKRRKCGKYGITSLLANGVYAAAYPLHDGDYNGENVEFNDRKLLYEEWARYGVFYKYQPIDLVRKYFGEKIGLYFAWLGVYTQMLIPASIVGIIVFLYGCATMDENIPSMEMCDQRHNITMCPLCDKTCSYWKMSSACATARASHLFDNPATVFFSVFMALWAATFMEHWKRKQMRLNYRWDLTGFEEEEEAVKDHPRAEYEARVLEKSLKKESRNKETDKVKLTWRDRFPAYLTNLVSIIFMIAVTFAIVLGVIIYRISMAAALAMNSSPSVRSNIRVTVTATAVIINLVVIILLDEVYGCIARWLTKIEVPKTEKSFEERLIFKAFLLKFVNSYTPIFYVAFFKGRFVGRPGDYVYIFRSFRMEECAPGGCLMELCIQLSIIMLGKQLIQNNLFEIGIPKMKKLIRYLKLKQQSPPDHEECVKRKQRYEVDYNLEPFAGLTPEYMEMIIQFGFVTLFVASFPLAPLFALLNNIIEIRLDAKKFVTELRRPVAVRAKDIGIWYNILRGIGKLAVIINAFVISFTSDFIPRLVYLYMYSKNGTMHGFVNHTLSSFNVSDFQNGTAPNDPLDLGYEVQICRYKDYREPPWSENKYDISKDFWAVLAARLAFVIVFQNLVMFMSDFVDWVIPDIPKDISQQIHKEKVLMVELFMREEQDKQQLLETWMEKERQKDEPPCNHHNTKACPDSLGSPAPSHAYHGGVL
Experiment: Automated patch clamping (QPatch) assay to measure TMEM16A activity in whole-cell
Assay type: cell-based
Details: for EC50: CHO cells expressing human TMEM16A (abc), whole-cell automated patch clamp, Hill fit, read-out: TMEM16A QPATCH assay EC50 V3 EC50; for Emax: CHO, maximum current at highest dose relative to reference potentiator at maximal concentration (upper limit) and vehicle (lower limit), read-out: TMEM16A QPATCH assay EC50 V3 Assay Window (% TMEM16A max activation)
Protocol: Automated Patch Clamping Assay to Measure TMEM16A Activity in Whole-Cell
Chinese hamster ovary cells (CHO) cells expressing abc isoform of human TMEM16A channel (Ref) were grown in vented cell-culture flasks (Corning) containing cell culture medium (1×F-12 Ham, 10% FBS, 1% Penicillin-streptomycin, 5 μg/mL Blasticidin S HCl, 400 μg/mL Zeocin), maintained at 37° C. in an incubator with 5% C02, 95% 02 and 100% humidity. The cells were passaged every 2-3 days at 80-90% confluence by aspirating the cell culture medium, washing twice with 10 mL D-PBS then incubating with 4 mL Trypsin-EDTA for no longer than 5 minutes. Trypsin was neutralized with the addition of 32 mL growth medium to the cell suspension, the cells were counted using a viable-cell counter (Vi-CELL; Beckmann-Coulter) and new flasks were seeded at a cell density of 0.01, 0.02, or 0.05×10^6 cells per cm2 for 3, 2, or 1 day(s) growth, respectively. Cell suspension was diluted in the new 175 cm2 flask with 50 mL of growth medium. Doxycycline was used to induce the expression of TMEM16A channel protein and was added directly to the culture flask 18-24 hours in advance of assay at a final concentration of 1 μg/mL. Induced cells were washed with D-PBS and detached from their culture flasks by adding 10 mL of Detachin and incubating for 10 minutes. Once detached, 5 mL of QPatch assay medium (1×CHO-S-SFM II (Sigma), 25 mM HEPES) was added and the resultant cell suspension counted using the Vi-CELL viable cell counter. The optimal cell density for this QPatch assay is 2-5×1 06 cells/mL; re-adjusted as necessary with QPatch assay medium.
The ion channel activity of TMEM16A (abc) expressed in CHO cells was assed using an automated patch clamp system (Qpatch, Sophion). These systems use planar patch-clamp technology to enable high-resistance, continuous whole-cell recordings from multiple cells in parallel, whilst maintaining each individual cell as an isolated experiment. First, each well was primed with intracellular and extracellular solutions described below. Cells were spun down, washed and then resuspended using extracellular solution. Intracellular solution: 130 mM N-methyl-D-glucamine, 10 mM EGTA, 20 mM CaCl2, 1 mM MgCl2, 10 mM HEPES 10, 10 mM BAPTA, 99 mM Sucrose, 2 mM Mg-ATP, pH 7.3, 320 mOsm Extracellular solution: 130 mM N-methyl-D-glucamine, 10 mM EGTA, 20 mM CaCl2, 1 mM MgCl2, 10 mM HEPES 10, 10 mM BAPTA, 99 mM Sucrose, 2 mM Mg-ATP, pH 7.3, 320 mOsm. Resuspended cells were then added to each well and suction was applied from the intracellular side in order to position a cell on the chip aperture, form a high resistance (GO) seal and achieve a whole-cell recording configuration. Following successful whole cell access, cell membranes were maintained at a voltage of −70 mV until the voltage protocol is applied. From this voltage, membranes were depolarized to +70 mV for 1500 ms, and then hyperpolarized to […] before being depolarized again from −90 to +70 mV in a continuous ramp waveform. At the end of the ramp, the membrane voltage is stepped back to −70 mV until the next waveform was applied. Compounds were dissolved at 10 mM in 100% DMSO and then diluted into extracellular solution (0.3% DMSO final) to the desired final concentration. The assay lower and upper limit were defined as follow, average amplitude (nA) of the last 3 sweeps in the vehicle addition of each cell was considered the basal current (lower limit); the average maximum current response in 3 cells for a reference potentiator at maximal concentration (upper limit). Current values for each compound concentration were then plotted against […]. EC50 curves are fitted to concentration-response data using curve-fitting functions (Hill fit) within the QPatch software. Curve fitting is constrained between the lowest concentration (vehicle-only addition) and the highest current value measured within the concentration range. […]

Row | SMILES | EC50 | Emax
1 | CCC(CC)NC(=O)c1cnc(-c2cccc(-c3cc(C(=O)NCc4ccc5c(c4)OCO5)n[nH]3)c2)o1 [Example 3.22, 2-(3-(3-((Benzo[d][1,3]Dioxol-5-Ylmethyl)Carbamoyl)-1H-Pyrazol-5-Yl)Phenyl)-N-(Pentan-3-Yl)Oxazole-5-Carboxamide] | 0.14 µM | 60%
2 | C[C@H](NC(=O)c1nnc(-c2cccc(-c3ncc(C(=O)NC(C4CC4)C4CC4)o3)c2)[nH]1)C1CC1 [Example 12.5, (S)-2-(3-(5-((1-Cyclopropylethyl)Carbamoyl)-4H-1,2,4-Triazol-3-Yl)Phenyl)-N-(Dicyclopropylmethyl)Oxazole-5-Carboxamide] | 0.03 µM | 92%
3 | CCC(CC)NC(=O)c1cc(-c2cccc(-c3ncc(C(=O)Nc4cccc(Cl)c4)o3)c2)[nH]n1 [Example 1.33, N-(3-Chlorophenyl)-2-(3-(3-(Pentan-3-Ylcarbamoyl)-1H-Pyrazol-5-yl)Phenyl)Oxazole-5-Carboxamide] | 0.72 µM | 66%
4 | CCOC(=O)[C@@H](NC(=O)c1cnc(-c2cccc(-c3cc(C(=O)NC(C4CC4)C4CC4)n(CC(C)(C)O)n3)c2)o1)C(C)C [Example 9.6, (S)-Ethyl 2-(2-(3-(5-((Dicyclopropylmethyl)Carbamoyl)-1-(2-Hydroxy-2-Methylpropyl)-1 H-Pyrazol-3-Yl)Phenyl)Oxazole-5-Carboxamido)-3-Methylbutanoate] | 0.03 µM | 100%
5 | CCC(CC)NC(=O)c1cnc(-c2cccc(-c3cc(C(=O)N[C@@H](C)C4CC4)n(C4COC4)n3)c2)o1 [Example 9.3, (S)-2-(3-(5-((1-Cyclopropylethyl)Carbamoyl)-1-(Oxetan-3-Yl)-1H-Pyrazol-3-Yl)Phenyl)-N-(Pentan-3-Yl)Oxazole-5-Carboxamide] | 0.4 µM | 143%

More lines, in order of falling EC50, values ahead:

Row | EC50 | Emax | SMILES
6 | 0.22 µM | 77% | CCC(CC)NC(=O)c1cnc(-c2cccc(-c3cc(C(=O)NCc4c(F)cccc4F)n[nH]3)c2)o1 [Example 3.34, 2-(3-(3-((2,6-Difluorobenzyl)Carbamoyl)-1 H-Pyrazol-5-Yl)Phenyl)-N-(Pentan-3-Yl)Oxazole-5-Carboxamide]
7 | 0.2 µM | 72% | CCC(CC)NC(=O)c1cnc(-c2cccc(-c3cc(C(=O)N4CCCC(C)(C)C4)n[nH]3)c2)o1 [Example 3.15, 2-(3-(3-(3,3-Dimethylpiperidine-1-Carbonyl)-1H-Pyrazol-5-Yl)Phenyl)-N-(Pentan-3-Yl)Oxazole-5-Carboxamide]
8 | 0.17 µM | 54% | C[C@H](NC(=O)c1cc(-c2cccc(-c3ncc(C(=O)N[C@H](C)C4CC4)o3)c2)[nH]n1)C1CC1 [Example 1.8, N-((R)-1-Cyclopropylethyl)-2-(3-(3-(((S)-1-Cyclopropylethyl)Carbamoyl)-1H-Pyrazol-5-Yl)Phenyl)Oxazole-5-Carboxamide]
9 | 0.15 µM | 137% | CCC(CC)NC(=O)c1cnc(-c2cccc(-c3cc(C(=O)N[C@@H](C)C4CC4)n(CCOC(C)C)n3)c2)o1 [Example 9.0, (S)-2-(3-(5-((1-Cyclopropylethyl)Carbamoyl)-1-(2-Isopropoxyethyl)-1 H-Pyrazol-3-Yl)Phenyl)-N-(Pentan-3-Yl)Oxazole-5-Carboxamide]
10 | 0.13 µM | 84% | CCC(CC)NC(=O)c1cnc(-c2cccc(-c3cc(C(=O)NC(C)(C)C)n[nH]3)c2)o1 [Example 3.43, 2-(3-(3-(Tert-Butylcarbamoyl)-1 H-Pyrazol-5-Yl)Phenyl)-N-(Pentan-3-yl)Oxazole-5-Carboxamide]
11 | 0.12 µM | 69% | CCC(CC)NC(=O)c1cnc(-c2cccc(-c3cc(C(=O)N[C@@H](C)C(C)(C)C)n[nH]3)c2)o1 [Example 3.35, (S)-2-(3-(3-((3,3-Dimethylbutan-2-Yl)Carbamoyl)-1H-Pyrazol-5-Yl)Phenyl)-N-(Pentan-3-Yl)Oxazole-5-Carboxamide Trifluoroacetate]
